Results reported in ChEMBL document CHEMBL4041467, “Synthesis of novel 15-membered 8a-azahomoerythromycin A acylides: Consequences of structural modification at the C-3 and C-6 position on antibacterial activity” (Eur J Med Chem, 2017).
Values after ≈ are worked out from the molar mass of the structure shown.

Tests used:
Type in all cases: functional
Streptococcus pyogenes [1] = test: Antibacterial activity against erythromycin susceptible Streptococcus pyogenes by agar microdilution method
Streptococcus pneumoniae [2] = test: Antibacterial activity against erythromycin susceptible Streptococcus pneumoniae by agar microdilution method
Haemophilus influenzae = test: Antibacterial activity against Haemophilus influenzae by agar microdilution method
Staphylococcus aureus [3] = test: Antibacterial activity against erythromycin susceptible Staphylococcus aureus by agar microdilution method
Streptococcus pyogenes [4] = test: Antibacterial activity against constitutively macrolide/lincosamide/streptogramin B-resistant Streptococcus pyogenes by agar microdilution method
Streptococcus pyogenes [5] = test: Antibacterial activity against Mef-mediated macrolide efflux resistant Streptococcus pyogenes by agar microdilution method
Streptococcus pneumoniae [6] = test: Antibacterial activity against constitutively macrolide/lincosamide/streptogramin B-resistant Streptococcus pneumoniae by agar microdilution method
Staphylococcus aureus [7] = test: Antibacterial activity against constitutively macrolide/lincosamide/streptogramin B-resistant Staphylococcus aureus by agar microdilution method
Streptococcus pneumoniae [8] = test: Antibacterial activity against Mef-mediated macrolide efflux resistant Streptococcus pneumoniae by agar microdilution method
Staphylococcus aureus [9] = test: Antibacterial activity against inducibly macrolide/lincosamide/streptogramin B-resistant Staphylococcus aureus by agar microdilution method

SMILES | MIC (Streptococcus pyogenes [1]) [µg/mL] | MIC (Streptococcus pneumoniae [2]) [µg/mL] | MIC (Haemophilus influenzae) [µg/mL] | MIC (Staphylococcus aureus [3]) [µg/mL] | MIC (Streptococcus pyogenes [4]) [µg/mL] | MIC (Streptococcus pyogenes [5]) [µg/mL] | MIC (Streptococcus pneumoniae [6]) [µg/mL] | MIC (Staphylococcus aureus [7]) [µg/mL] | MIC (Streptococcus pneumoniae [8]) [µg/mL] | MIC (Staphylococcus aureus [9]) [µg/mL]
NCCNc1cc2c(cc1F)c(=O)c(C(=O)O)cn2C1CC1 | > 64 | > 64 | > 64 | > 64 |  |  |  |  |  | 
C=CCO[C@]1(C)C[C@@H](C)NC(=O)[C@H](C)[C@@H](O)[C@](C)(O)[C@@H](CC)OC(=O)[C@H](C)[C@@H](OC(=O)CCNC(C)Cc2ccc([N+](=O)[O-])cc2)[C@H](C)[C@H]1O[C@@H]1O[C@H](C)C[C@H](N(C)C)[C@H]1O (stereo partly specified) | ≤ 0.125 | ≤ 0.125 | 8 (≈ 9.25 µM) | 1 (≈ 1.16 µM) | > 64 | 1 (≈ 1.16 µM) | > 64 | > 64 | 0.5 (≈ 0.578 µM) | 1 (≈ 1.16 µM)
C=CCO[C@]1(C)C[C@@H](C)NC(=O)[C@H](C)[C@@H](O)[C@](C)(O)[C@@H](CC)OC(=O)[C@H](C)[C@@H](OC(=O)CCN2CCN(c3cc4c(=O)c(C(=O)O)cn(C5CC5)c4cc3Cl)CC2)[C@H](C)[C@H]1O[C@@H]1O[C@H](C)C[C@H](N(C)C)[C@H]1O | ≤ 0.125 | ≤ 0.125 | 4 (≈ 3.87 µM) | ≤ 0.125 | 8 (≈ 7.75 µM) | 1 (≈ 0.968 µM) | 4 (≈ 3.87 µM) | > 64 | 0.5 (≈ 0.484 µM) | 0.25 (≈ 0.242 µM)
C=CCO[C@]1(C)C[C@@H](C)NC(=O)[C@H](C)[C@@H](O)[C@](C)(O)[C@@H](CC)OC(=O)[C@H](C)[C@@H](OC(=O)CCN2CCN(C(=O)c3ccco3)CC2)[C@H](C)[C@H]1O[C@@H]1O[C@H](C)C[C@H](N(C)C)[C@H]1O | 0.5 (≈ 0.578 µM) | 0.5 (≈ 0.578 µM) | 8 (≈ 9.25 µM) | 2 (≈ 2.31 µM) | > 64 | 4 (≈ 4.62 µM) | > 64 | > 64 | 4 (≈ 4.62 µM) | 2 (≈ 2.31 µM)
C=CCO[C@]1(C)C[C@@H](C)NC(=O)[C@H](C)[C@@H](O)[C@](C)(O)[C@@H](CC)OC(=O)[C@H](C)[C@@H](OC(=O)CCNCCCCc2ccccc2)[C@H](C)[C@H]1O[C@@H]1O[C@H](C)C[C@H](N(C)C)[C@H]1O | 2 (≈ 2.4 µM) | 0.5 (≈ 0.599 µM) | 16 (≈ 19.2 µM) | 2 (≈ 2.4 µM) | > 64 | 2 (≈ 2.4 µM) | > 64 | > 64 | 4 (≈ 4.8 µM) | 8 (≈ 9.59 µM)
C=CCO[C@]1(C)C[C@@H](C)NC(=O)[C@H](C)[C@@H](O)[C@](C)(O)[C@@H](CC)OC(=O)[C@H](C)[C@@H](OC(=O)CCNC(C)C(=O)Nc2cnc3ccccc3c2)[C@H](C)[C@H]1O[C@@H]1O[C@H](C)C[C@H](N(C)C)[C@H]1O (stereo partly specified) | ≤ 0.125 | ≤ 0.125 | 4 (≈ 4.44 µM) | 0.5 (≈ 0.555 µM) | 8 (≈ 8.89 µM) | 1 (≈ 1.11 µM) | 16 (≈ 17.8 µM) | > 64 | 0.25 (≈ 0.278 µM) | 1 (≈ 1.11 µM)
O=C(O)c1cn(C2CC2)c2ccc(N3CCNCC3)cc2c1=O | > 64 | > 64 | > 64 | > 64 |  |  |  |  |  | 
C=CCO[C@]1(C)C[C@@H](C)NC(=O)[C@H](C)[C@@H](O)[C@](C)(O)[C@@H](CC)OC(=O)[C@H](C)[C@@H](OC(=O)CCNC(C)C(=O)Nc2ccccc2)[C@H](C)[C@H]1O[C@@H]1O[C@H](C)C[C@H](N(C)C)[C@H]1O (stereo partly specified) | 0.5 (≈ 0.589 µM) | 0.25 (≈ 0.294 µM) | 16 (≈ 18.8 µM) | 2 (≈ 2.36 µM) | > 64 | 2 (≈ 2.36 µM) | > 64 | > 64 | 1 (≈ 1.18 µM) | 4 (≈ 4.71 µM)
C=CCO[C@]1(C)C[C@@H](C)NC(=O)[C@H](C)[C@@H](O)[C@](C)(O)[C@@H](CC)OC(=O)[C@H](C)[C@@H](OC(=O)CCN(C)CCc2ccccc2)[C@H](C)[C@H]1O[C@@H]1O[C@H](C)C[C@H](N(C)C)[C@H]1O | 0.5 (≈ 0.61 µM) | 0.25 (≈ 0.305 µM) | 16 (≈ 19.5 µM) | 4 (≈ 4.88 µM) | > 64 | 8 (≈ 9.76 µM) | > 64 | > 64 | 2 (≈ 2.44 µM) | 4 (≈ 4.88 µM)
C=CCO[C@]1(C)C[C@@H](C)NC(=O)[C@H](C)[C@@H](O)[C@](C)(O)[C@@H](CC)OC(=O)[C@H](C)[C@@H](OC(=O)CCN(C)CCc2ccc([N+](=O)[O-])cc2)[C@H](C)[C@H]1O[C@@H]1O[C@H](C)C[C@H](N(C)C)[C@H]1O | ≤ 0.125 | ≤ 0.125 | 8 (≈ 9.25 µM) | 0.5 (≈ 0.578 µM) | > 64 |  | > 64 | > 64 |  | 0.5 (≈ 0.578 µM)
C=CCO[C@]1(C)C[C@@H](C)NC(=O)[C@H](C)[C@@H](OC(=O)C=C)[C@](C)(O)[C@@H](CC)OC(=O)[C@H](C)[C@@H](OC(=O)C=C)[C@H](C)[C@H]1O[C@@H]1O[C@H](C)C[C@H](N(C)C)[C@H]1O | 32 (≈ 43.3 µM) | 32 (≈ 43.3 µM) | > 64 | 32 (≈ 43.3 µM) | > 64 | > 64 | > 64 | > 64 | > 64 | > 64
